Laboratory results taken from PubChem BioAssay AID1918933 (Molecular Pharmacology Branch, DTP, NCI, 2023).
pIC50: −log10 of the molar value.

Test system: 186277-243-T-J2-PDC complex spheroid viability
Assay: Anticancer human tumor 186277-243-T-J2-PDC patient-derived colon adenocarcinoma cell line growth inhibition
Details: for pIC50: curve of first compound; for viability, T/C: stronger effect = lower value; active means viability on the fitted dose curve at most 10% of control; inactive means the rest
Method in brief: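 Drug combinations with the LSD1 inhibitor iadademstat tested on tumor cells co-cultured as spheroids with endothelial cells and mesenchymal stem cells. Concentrations descended in half-log increments from clinical Cmax or 10 microM.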

[1] = second compound 0.1 µM, first compound 0.00949 µM
[2] = second compound 0.1 µM, first compound 0.03 µM
[3] = second compound 0.1 µM, first compound 0.0949 µM
[4] = second compound 0.1 µM, first compound 0.3 µM
[5] = second compound 0.1 µM, first compound 0.949 µM
[6] = second compound 0.1 µM, first compound 3 µM
[7] = second compound 0.316 µM, first compound 0.00949 µM
[8] = second compound 0.316 µM, first compound 0.03 µM
[9] = second compound 0.316 µM, first compound 0.0949 µM
[10] = second compound 0.316 µM, first compound 0.3 µM
[11] = second compound 0.316 µM, first compound 0.949 µM
[12] = second compound 0.316 µM, first compound 3 µM
[13] = second compound 1 µM, first compound 0.00949 µM
[14] = second compound 1 µM, first compound 0.03 µM
[15] = second compound 1 µM, first compound 0.0949 µM
[16] = second compound 1 µM, first compound 0.3 µM
[17] = second compound 1 µM, first compound 0.949 µM
[18] = second compound 1 µM, first compound 3 µM
[19] = second compound 3.16 µM, first compound 0.00949 µM
[20] = second compound 3.16 µM, first compound 0.03 µM
[21] = second compound 3.16 µM, first compound 0.0949 µM
[22] = second compound 3.16 µM, first compound 0.3 µM
[23] = second compound 3.16 µM, first compound 0.949 µM
[24] = second compound 3.16 µM, first compound 3 µM
[25] = second compound 10 µM, first compound 0.00949 µM
[26] = second compound 10 µM, first compound 0.03 µM
[27] = second compound 10 µM, first compound 0.0949 µM
[28] = second compound 10 µM, first compound 0.3 µM
[29] = second compound 10 µM, first compound 0.949 µM
[30] = second compound 10 µM, first compound 3 µM
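Further: 7 day exposure to compounds.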
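Wherever viability, T/C is given: 100% = DMSO vehicle control viability.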

CC(C)CC(NC(=O)C(Cc1ccccc1)NC(=O)c1cnccn1)B(O)O (stereo not given) + NC1CC1c1ccc(-c2cccc(O)c2)cc1
active: viability, T/C (second compound 0.1 µM, first compound 0.001 µM) 3.98% | viability, T/C (second compound 0.1 µM, first compound 0.00316 µM) 0.06% | viability, T/C (second compound 0.1 µM, first compound 0.01 µM) 0.02% | viability, T/C (second compound 0.1 µM, first compound 0.0316 µM) 0.02% | viability, T/C (second compound 0.1 µM, first compound 0.1 µM) 0.12% | viability, T/C (second compound 0.316 µM, first compound 0.001 µM) 1.53% | viability, T/C (second compound 0.316 µM, first compound 0.00316 µM) 0.04% | viability, T/C (second compound 0.316 µM, first compound 0.01 µM) 0.01% | viability, T/C (second compound 0.316 µM, first compound 0.0316 µM) 0.37% | viability, T/C (second compound 0.316 µM, first compound 0.1 µM) 0.1% | viability, T/C (second compound 1 µM, first compound 0.001 µM) 1.48% | viability, T/C (second compound 1 µM, first compound 0.00316 µM) 0.05% | viability, T/C (second compound 1 µM, first compound 0.01 µM) 0.02% | viability, T/C (second compound 1 µM, first compound 0.0316 µM) 0.07% | viability, T/C (second compound 1 µM, first compound 0.1 µM) 0.1% | viability, T/C (second compound 3.16 µM, first compound 0.001 µM) 1.66% | viability, T/C (second compound 3.16 µM, first compound 0.00316 µM) 0.06% | viability, T/C (second compound 3.16 µM, first compound 0.01 µM) 0.02% | viability, T/C (second compound 3.16 µM, first compound 0.0316 µM) 0.64% | viability, T/C (second compound 3.16 µM, first compound 0.1 µM) 0.74% | viability, T/C (second compound 10 µM, first compound 0.001 µM) 0.65% | viability, T/C (second compound 10 µM, first compound 0.00316 µM) 0.13% | viability, T/C (second compound 10 µM, first compound 0.01 µM) 0.2% | viability, T/C (second compound 10 µM, first compound 0.0316 µM) 0.13% | viability, T/C (second compound 10 µM, first compound 0.1 µM) 0.89%
9.22: pIC50 (second compound 0.1 µM)
9.24: pIC50 (second compound 3.16 µM)
9.26: pIC50 (second compound 0.316 µM) | pIC50 (second compound 1 µM)
9.25: pIC50 (second compound 10 µM)
inactive: viability, T/C (second compound 0.1 µM, first compound 0.000316 µM) 108% | viability, T/C (second compound 0.316 µM, first compound 0.000316 µM) 94.1% | viability, T/C (second compound 1 µM, first compound 0.000316 µM) 94.3% | viability, T/C (second compound 3.16 µM, first compound 0.000316 µM) 101% | viability, T/C (second compound 10 µM, first compound 0.000316 µM) 97.9%

Nc1ccccc1NC(=O)c1ccc(CNC(=O)OCc2cccnc2)cc1 + NC1CC1c1ccc(-c2cccc(O)c2)cc1
6.29: pIC50 (second compound 10 µM)
6.22: pIC50 (second compound 0.1 µM)
active: viability, T/C [6] 1.51% | viability, T/C [12] 0.84% | viability, T/C [18] 0.9% | viability, T/C [24] 1.44% | viability, T/C [30] 1.02%
6.23: pIC50 (second compound 1 µM)
6.25: pIC50 (second compound 3.16 µM)
6.24: pIC50 (second compound 0.316 µM)
inactive: viability, T/C [1] 93.8% | viability, T/C [2] 104% | viability, T/C [3] 91.6% | viability, T/C [4] 98.6% | viability, T/C [5] 18.1% | viability, T/C [7] 99.6% | viability, T/C [8] 99.6% | viability, T/C [9] 108% | viability, T/C [10] 93.5% | viability, T/C [11] 15.4% | viability, T/C [13] 98.8% | viability, T/C [14] 94.1% | viability, T/C [15] 98.8% | viability, T/C [16] 94.7% | viability, T/C [17] 17.7% | viability, T/C [19] 99.8% | viability, T/C [20] 110% | viability, T/C [21] 109% | viability, T/C [22] 87.9% | viability, T/C [23] 18.5% | viability, T/C [25] 96.2% | viability, T/C [26] 97.3% | viability, T/C [27] 104% | viability, T/C [28] 83.3% | viability, T/C [29] 11.8%

COc1cc(C2c3cc4c(cc3C(OC3OC5COC(C)OC5C(O)C3O)C3COC(=O)C23)OCO4)cc(OC)c1O (stereo not given) + NC1CC1c1ccc(-c2cccc(O)c2)cc1
6.22: pIC50 (second compound 0.1 µM)
6.23: pIC50 (second compound 0.316 µM)
inactive: viability, T/C [1] 107% | viability, T/C [2] 134% | viability, T/C [3] 116% | viability, T/C [4] 73.7% | viability, T/C [5] 36.2% | viability, T/C [6] 17.4% | viability, T/C [7] 103% | viability, T/C [8] 134% | viability, T/C [9] 118% | viability, T/C [10] 73% | viability, T/C [11] 36.6% | viability, T/C [12] 18% | viability, T/C [13] 99.7% | viability, T/C [14] 134% | viability, T/C [15] 121% | viability, T/C [16] 80.9% | viability, T/C [17] 38.6% | viability, T/C [18] 17.7% | viability, T/C [19] 100% | viability, T/C [20] 137% | viability, T/C [21] 133% | viability, T/C [22] 79% | viability, T/C [23] 39.9% | viability, T/C [24] 17.4% | viability, T/C [25] 94.3% | viability, T/C [26] 146% | viability, T/C [27] 119% | viability, T/C [28] 64.1% | viability, T/C [29] 29.9% | viability, T/C [30] 11.2%
6.18: pIC50 (second compound 1 µM)
6.34: pIC50 (second compound 10 µM)
6.20: pIC50 (second compound 3.16 µM)
